Common to all, as to format: cell-based
Assay [1] concerns IL-1β release by human monocytes. Briefly: ATP-induced IL-1β posttranslational processing (ATP kick), ELISA. Particulars: Monocyte, LPS-stimulated human monocytes, IL-1β ELISA, read-out: Human Monocyte AtP kick % Inh. On the procedure: PROTOCOL FOR ATP-INDUCED IL-Iβ POSTTRANSLATIONAL PROCESSING
Cells: Human monocytes were isolated by Ficoll-Hypaque centrifugation of heparinized blood. The monocyte band off the gradient was collected, diluted with RPMI 1640, 5% fetal bovine serum (FBS), 20 mM N-[2[hydroxyethyl]piperazine-N-[2-ethanesulfonic acid] (Hepes), pH 7.3 (40 ml) and the cells were collected by centrifugation. The cell pellet was washed twice with 30 ml of RPMI 1640, 5% FBS, 20 mM Hepes (Maintenance Medium). The monocytes were resuspended in 50 ml of the Maintenance Medium. Into each well of a 96 well plate was added […] mononuclear cells. The cell suspension was diluted to a final concentration of 1.5×10^5 mononuclear cells. (To accomplish this, the cell suspension was diluted to a final concentration of 1.5×10^6 cell/ml and 0.2 ml was added to each well of the plate.) After incubating at 37° C. for 2 hours, the supernatant containing non-adherent cells was removed by aspiration. The adherent cells were washed once with 0.15 ml of Maintenance medium. Then, 0.15 ml of fresh Maintenance Medium was added and the cells were incubated overnight at 37° C.
Stimulation: Lipopolysaccharide (LPS) was added to a final concentration of 10 ng/ml and incubated at 37° C. for 2 hours. […]
In general terms: In an ELISA, binding on a coated surface is turned into a signal by an enzyme label.

Assay [2] concerns production of PGD2 (cyclooxygenase pathway) by RBL-1 cells. Briefly: Inhibition of the cyclooxygenase pathway (PGD2 formation) in RBL-1 cells. Particulars: Rattus norvegicus, 5 min, [14C]-arachidonic acid plus calcium ionophore, N in brackets, read-out: RBL-cells PGD2 formation IC50 ± SD (N). The method, then:
METHOD FOR ASSESSING THE INHIBITION OF THE CYCLOOXYGENASE PATHWAY IN (RBL) CELLS
a) RBL-1 cell incubations. […] A 0.5 ml allquot of cell suspension was preincubated at 30° C. for 10 minutes with 1 μl dimethyl sulfoxide (DMSO) solution of drug. […] Five minutes later, the incubation was terminated by the addition of a 0.27 ml volume of acetonitrile (ACN)/acetic acid (HOAc) (100:3). The mixture was then clarified of precipitated protein by centrifugation. Analysis of 5-LO/COX pathway products was performed by radioactivity monitoring after separation by high performance liquid chromatography (HPLC). […] The area under the curve (AUC) as measured in integration units for each product was compared to the average AUC value for untreated (no drug) controls. […] Half-maximal (IC50) points were estimated from these curves.

Assay [3] has as its system IL-1β release by human monocytes. Briefly: ATP kick, slightly different assay that employed metabolically labeled cells. The following applies: Monocyte, read-out: Human Monocyte AtP kick IC50 (No. Trials), starred values. From the text: *Values for tenidap (the first compound in the table), and in one case
ilonidap (the second compound in the table) were derived from a slightly
different assay that employed metabolically labeled cells.

With `Cc1ccc2c(c1)C(C(=O)c1cccs1)C(=O)N2C(N)=O` (centres unmarked) [CH3 H 2'-thienyl], the inhibition at 19 µM in assay [1] came to 32%. Besides, the concentration for half-maximal inhibition (IC50) in assay [2] worked out at 99 µM.

`NC(=O)N1C(=O)C(C(=O)c2ccoc2)c2cc(Cl)ccc21` (centres unmarked) [Cl H 3'-furyl]: the IC50 in assay [2] stood at 3.2 µM.

With `NC(=O)N1C(=O)C(C(=O)c2ccsc2)c2cc(Cl)ccc21` (centres unmarked) [Cl H 3'-thienyl], the inhibition at 19 µM in assay [1] amounted to 14%. The IC50 in assay [2] was 0.7 µM.

As to `NC(=O)N1C(=O)C(C(=O)C(F)(F)F)c2cc(Cl)ccc21` (centres unmarked) [Cl H Trifluoromethyl], in assay [2], the IC50 turned out to be 37 µM.

Turning to `NC(=O)N1C(=O)C(C(=O)c2cccs2)c2cc(Cl)ccc21` (centres unmarked) [tenidap, 5-chloro-2,3-dihydro-2-oxo-3-(2-thienylcarbonyl)-indole-1-carboxamide], the IC50 in assay [3] is 40 µM; in assay [2], 0.02 ± 0.02 µM.

By IC50 is commonly meant the concentration that gives 50% inhibition.

(Values after patent US5545656A, “2-Oxidole-1-carboxamide pharmaceutical agents for the treatment of alzheimer's disease” (Pfizer Inc., priority 1995, dated 1996).)
